Values belong to the molecule of their own block, whether it stands above or below them.
What was measured:
Settings in all cases: stereoisomer not certain
[1] = RP, Waters ACQUITY UPLC BEH C18, 100 × 2.1 mm, 1.7 µm, 0.1 mL/min, estimated dead time 2.2 min; A: water + 0.1% formic acid, pH 3; B: methanol + 0.1% formic acid, pH 3; gradient (min/%B) 0/5 5/5 25/100 30/100 30.1/5 35/5
[2] = RP, Waters CORTECS T3, 100 × 2.1 mm, 2.7 µm, 0.2 mL/min, estimated dead time 1.1 min; A: water + 0.045% formic acid + 0.11% ammonium hydroxide, pH 7; B: methanol; gradient (min/%B) 0/5 5/5 25/95 25.1/100 35/100 35.1/5 45/5
[3] = RP, Waters CORTECS T3, 100 × 2.1 mm, 2.7 µm, 0.15 mL/min, estimated dead time 1.5 min; A: water + 0.1% formic acid, pH 3; B: methanol + 0.1% formic acid, pH 3; gradient (min/%B) 0/0 1/0 6/5 30/100 35/100 35.1/0 40/0
[4] = RP, Waters CORTECS T3, 100 × 2.1 mm, 2.7 µm, 0.3 mL/min, estimated dead time 0.73 min; A: water + 0.1% formic acid, pH 3; B: methanol + 0.1% formic acid, pH 3; gradient (min/%B) 0/0 1/0 6/5 30/100 35/100 35.1/0 40/0
[5] = RP, Waters CORTECS T3, 100 × 2.1 mm, 2.7 µm, 0.3 mL/min, estimated dead time 0.73 min; A: water + 0.1% formic acid, pH 3; B: methanol + 0.1% formic acid, pH 3; gradient (min/%B) 0/5 5/5 25/100 30/100 30.1/5 35/5
[6] = RP, Thermo Scientific Hypercarb, 150 × 2.1 mm, 5 µm, 0.1 mL/min, estimated dead time 3.3 min; A: water + 0.1% formic acid, pH 3; B: methanol + 0.1% formic acid, pH 3; gradient (min/%B) 0/5 5/5 20/100 35/100 35.1/5 45/5
[7] = RP, Waters ACQUITY UPLC BEH C18, 100 × 2.1 mm, 1.7 µm, 0.2 mL/min, estimated dead time 1.1 min; A: water + 0.025% formic acid + 20 mM ammonium acetate + 0.055% ammonium hydroxide, pH 7; B: methanol; gradient (min/%B) 0/5 5/5 25/100 30/100 30.1/5 35/5
[8] = RP, Waters CORTECS T3, 100 × 2.1 mm, 2.7 µm, 0.1 mL/min, estimated dead time 2.2 min; A: water + 0.1% formic acid, pH 3; B: methanol + 0.1% formic acid, pH 3; gradient (min/%B) 0/5 5/5 25/95 25.1/100 35/100 35.1/5 45/5
[9] = RP, Waters CORTECS T3, 100 × 2.1 mm, 2.7 µm, 0.1 mL/min, estimated dead time 2.2 min; A: water + 0.1% formic acid, pH 3; B: methanol + 0.1% formic acid, pH 3; gradient (min/%B) 0/0 1/0 6/5 30/100 35/100 35.1/0 40/0
[10] = RP, Waters CORTECS T3, 100 × 2.1 mm, 2.7 µm, 0.3 mL/min, estimated dead time 0.73 min; A: water + 0.1% formic acid, pH 3; B: methanol + 0.1% formic acid, pH 3; gradient (min/%B) 0/0 5/0 25/100 30/100 30.1/0 35/0
[11] = RP, Waters CORTECS T3, 100 × 2.1 mm, 2.7 µm, 0.2 mL/min, estimated dead time 1.1 min; A: water + 0.1% formic acid, pH 3; B: methanol + 0.1% formic acid, pH 3; gradient (min/%B) 0/0 1/0 6/5 30/100 35/100 35.1/0 40/0
[12] = RP, Waters CORTECS T3, 100 × 2.1 mm, 2.7 µm, 0.25 mL/min, estimated dead time 0.88 min; A: water + 0.1% formic acid, pH 3; B: methanol + 0.1% formic acid, pH 3; gradient (min/%B) 0/0 1/0 6/5 30/100 35/100 35.1/0 40/0
[13] = RP, Waters CORTECS T3, 100 × 2.1 mm, 2.7 µm, 0.3 mL/min, estimated dead time 0.73 min; A: water + 0.1% formic acid, pH 3; B: methanol + 0.1% formic acid, pH 3; gradient (min/%B) 0/5 5/5 25/95 25.1/100 35/100 35.1/5 45/5
[14] = RP, Waters CORTECS T3, 100 × 2.1 mm, 2.7 µm, 0.25 mL/min, estimated dead time 0.88 min; A: water + 0.1% formic acid, pH 3; B: methanol + 0.1% formic acid, pH 3; gradient (min/%B) 0/5 5/5 25/95 25.1/100 35/100 35.1/5 45/5
[15] = HILIC, Waters XBridge BEH Amide, 100 × 2.1 mm, 2.5 µm, 0.5 mL/min, estimated dead time 0.44 min; A: water + 0.1% acetic acid + 10 mM ammonium acetate, pH 4; B: 5% water + 95% acetonitrile + 0.1% acetic acid + 10 mM ammonium acetate, pH 4; gradient (min/%B) 0/95 5/95 20/57 25/57 30/95 40/95
[16] = RP, Waters CORTECS T3, 100 × 2.1 mm, 2.7 µm, 0.3 mL/min, estimated dead time 0.73 min; A: water + 0.1% formic acid, pH 3; B: methanol + 0.1% formic acid, pH 3; gradient (min/%B) 0/0 1/0 6/5 30/100 35/100 35.1/0 40/0; remark: listed apart in the source
[17] = RP, Waters CORTECS T3, 100 × 2.1 mm, 2.7 µm, 0.2 mL/min, estimated dead time 1.1 min; A: water + 0.1% formic acid, pH 3; B: methanol + 0.1% formic acid, pH 3; gradient (min/%B) 0/0 1/0 6/5 30/100 35/100 35.1/0 40/0; remark: listed apart in the source
[18] = RP, Waters CORTECS T3, 100 × 2.1 mm, 2.7 µm, 0.2 mL/min, estimated dead time 1.1 min; A: water + 0.1% formic acid, pH 3; B: methanol + 0.1% formic acid, pH 3; gradient (min/%B) 0/5 5/5 25/95 25.1/100 35/100 35.1/5 45/5
[19] = HILIC, Merck SeQuant ZIC-HILIC, 150 × 2.1 mm, 5 µm, 0.75 mL/min, estimated dead time 0.44 min; A: water + 0.1% acetic acid + 10 mM ammonium acetate, pH 4; B: 5% water + 95% acetonitrile + 0.1% acetic acid + 10 mM ammonium acetate, pH 4; gradient (min/%B) 0/95 5/95 20/57 25/57 30/95 40/95
[20] = RP, Waters ACQUITY UPLC BEH C18, 100 × 2.1 mm, 1.7 µm, 0.2 mL/min, estimated dead time 1.1 min; A: water + 0.025% formic acid + 20 mM ammonium acetate + 0.055% ammonium hydroxide, pH 7; B: methanol; gradient (min/%B) 0/5 5/5 25/100 30/100 30.1/5 35/5; remark: listed apart in the source
[21] = RP, Waters ACQUITY UPLC BEH C18, 100 × 2.1 mm, 1.7 µm, 0.2 mL/min, estimated dead time 1.1 min; A: water + 0.1% formic acid, pH 3; B: methanol + 0.1% formic acid, pH 3; gradient (min/%B) 0/5 5/5 25/100 30/100 30.1/5 35/5
[22] = RP, Waters CORTECS T3, 100 × 2.1 mm, 2.7 µm, 0.3 mL/min, estimated dead time 0.73 min; A: water + 0.1% formic acid, pH 3; B: methanol + 0.1% formic acid, pH 3; gradient (min/%B) 0/0 5/0 25/100 30/100 30.1/0 35/0; remark: listed apart in the source
[23] = RP, Waters ACQUITY UPLC BEH C18, 100 × 2.1 mm, 1.7 µm, 0.1 mL/min, estimated dead time 2.2 min; A: water + 0.045% formic acid + 0.11% ammonium hydroxide, pH 7; B: methanol; gradient (min/%B) 0/5 5/5 25/95 25.1/100 35/100 35.1/5 45/5

LC retention time [6]: 4.84 min | LC retention time [15]: 13 min | LC retention time [19]: 12.9 min | LC retention time [18]: 2.48 min
SMILES: NC(=O)CC[C@H](N)C(=O)O [L-GLUTAMINE]

LC retention time [2]: 1.54 min | LC retention time [6]: 4.68 min | LC retention time [7]: 1.79 min | LC retention time [15]: 11.4 min | LC retention time [23]: 3.33 min
SMILES: N[C@H](CO)Cc1cnc[nH]1 [L-HISTIDINOL]

LC retention time [15]: 4.84 min | LC retention time [19]: 5.01 min
SMILES: COC1OC(CO)C(O)C(O)C1O [METHYL BETA-D-GALACTOSIDE]

LC retention time [14]: 1.11 min | LC retention time [15]: 11.2 min | LC retention time [16]: 0.95 min | LC retention time [21]: 1.46 min
SMILES: CC(=O)NCC(=O)O [N-ACETYLGLYCINE]

LC retention time [3]: 1.78 min | LC retention time [6]: 12.7 min | LC retention time [15]: 14.5 min | LC retention time [10]: 0.89 min
SMILES: NC(N)=N[C@@H](CC(=O)O)C(=O)O [N-AMIDINO-L-ASPARTATE]

LC retention time [22]: 0.91 min
SMILES: O=CNCC(=O)O [N-FORMYLGLYCINE]

LC retention time [14]: 1.08 min | LC retention time [22]: 0.93 min | LC retention time [16]: 0.92 min | LC retention time [17]: 1.35 min | LC retention time [18]: 2.67 min
SMILES: O=c1[nH]c(=O)c2ncn(C3OC(COP(=O)(O)O)C(O)C3O)c2[nH]1 (stereo not drawn) [XANTHOSINE 5'-MONOPHOSPHATE]

The remaining lines, values behind:

SMILES: Nc1cccc2ccccc12 [1-NAPHTHYLAMINE]
LC retention time [1]: 16.5 min | LC retention time [2]: 14.5 min | LC retention time [3]: 15.2 min | LC retention time [4]: 11.8 min | LC retention time [5]: 10.2 min | LC retention time [6]: 30.6 min | LC retention time [7]: 14.7 min | LC retention time [8]: 16.1 min | LC retention time [9]: 12.1 min | LC retention time [10]: 11.5 min | LC retention time [11]: 13.5 min | LC retention time [12]: 12.6 min | LC retention time [13]: 10.3 min

SMILES: O=c1ccn(C2CC(O)C(COP(=O)(O)O)O2)c(=O)[nH]1 (stereo not drawn) [2'-DEOXYURIDINE 5'-MONOPHOSPHATE]
LC retention time [14]: 1.08 min | LC retention time [15]: 13.3 min | LC retention time [16]: 0.92 min | LC retention time [17]: 1.35 min | LC retention time [18]: 2.67 min

SMILES: O=c1[nH]c(=O)c2nccnc2[nH]1 [2,4-DIHYDROXYPTERIDINE]
LC retention time [1]: 5.19 min | LC retention time [15]: 1.7 min | LC retention time [19]: 1.46 min

SMILES: CC(C)=CC(=O)SCCNC(=O)CCNC(=O)C(O)C(C)(C)COP(=O)(O)OP(=O)(O)OCC1OC(n2cnc3c(N)ncnc32)C(O)C1OP(=O)(O)O (stereo not drawn) [3-METHYLCROTONYL-COA]
LC retention time [20]: 8.78 min

SMILES: O=c1[nH]cc(CO)c(=O)[nH]1 [5-HYDROXYMETHYLURACIL]
LC retention time [14]: 1.06 min | LC retention time [16]: 0.9 min | LC retention time [21]: 1.41 min

SMILES: O=C(O)CCCCCCCCCO [10-HYDROXYDECANOATE]
LC retention time [14]: 17.7 min | LC retention time [22]: 17.3 min | LC retention time [19]: 1.13 min | LC retention time [21]: 18.3 min

SMILES: Nc1ncnc2c1ncn2C1OC(COP(=O)(O)OP(=O)(O)OC2OC(CO)C(O)C(O)C2O)C(O)C1O (stereo not drawn) [ADENOSINE 5'-DIPHOSPHOGLUCOSE]
LC retention time [14]: 1.08 min | LC retention time [22]: 0.89 min | LC retention time [16]: 0.92 min | LC retention time [17]: 1.35 min | LC retention time [21]: 1.56 min

SMILES: Cc1cc2nc3c(=O)[nH]c(=O)nc-3n(CC(O)C(O)C(O)COP(=O)(O)OP(=O)(O)OCC3OC(n4cnc5c(N)ncnc54)C(O)C3O)c2cc1C (stereo not drawn) [FLAVIN ADENINE DINUCLEOTIDE]
LC retention time [16]: 12.1 min

SMILES: Cn1cncc1CC(NC(=O)CCN)C(=O)O [L-ANSERINE]
LC retention time [6]: 4.86 min | LC retention time [7]: 1.42 min | LC retention time [15]: 15 min | LC retention time [20]: 1.41 min | LC retention time [18]: 2.43 min

SMILES: CNCCc1c[nH]c2ccccc12 [N-METHYLTRYPTAMINE]
LC retention time [1]: 13.3 min | LC retention time [2]: 10.7 min | LC retention time [3]: 12.5 min | LC retention time [4]: 9.8 min | LC retention time [5]: 8.14 min | LC retention time [7]: 11.1 min | LC retention time [8]: 13.1 min | LC retention time [9]: 9.68 min | LC retention time [10]: 9.75 min | LC retention time [23]: 14.4 min | LC retention time [11]: 11.2 min | LC retention time [12]: 10.4 min | LC retention time [13]: 8.19 min
